Laboratory results from patent US12624044B2, “SMARCA degraders and uses thereof” (Kymera Therapeutics, Inc., priority 2019, dated 2026).

Experiments:
Type in all cases: cell-based
SMARCA2 [1] = target: T1, SMARCA2 (Homo sapiens, UniProt P51531); test: MSD SMARCA2 degradation in A549 cell line; details: 24 h; for Dmax: A549, A549 cells; for DC50: A549 cells, read-out: SMARCA2 MSD A549 degradation 24 h: Average external-Abs DC50
Summary of the method: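 SMARCA2 remaining was measured by MSD electrochemiluminescence on RIPA lysates (anti-SMARCA2 plus SULFO-TAG anti-rabbit). Prior exposure: 24 h of A549 cells to a 10-point, 3-fold dilution series topping at 1000 nM final; Dmax % given as graded codes.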

SMARCA4 = target: T2, SMARCA4 (Homo sapiens, UniProt P51532); test: SMARCA4 Western blot MV4-11 degradation; details: 24 h; for Dmax: MV4-11, MV4-11 cells, read-out: SMARCA4 WB MV411 degradation 24 h: Average Dmax %; for DC50: MV4-11 cells, read-out: SMARCA4 WB MV411 degradation 24 h: Average external-Abs DC50
T2 construct: SMARCA2 and SMARCA4 protein degradation in MV4-11 cells; endogenous in cells; host or cells: MV4-11
T2 sequence (P51532 whole entry): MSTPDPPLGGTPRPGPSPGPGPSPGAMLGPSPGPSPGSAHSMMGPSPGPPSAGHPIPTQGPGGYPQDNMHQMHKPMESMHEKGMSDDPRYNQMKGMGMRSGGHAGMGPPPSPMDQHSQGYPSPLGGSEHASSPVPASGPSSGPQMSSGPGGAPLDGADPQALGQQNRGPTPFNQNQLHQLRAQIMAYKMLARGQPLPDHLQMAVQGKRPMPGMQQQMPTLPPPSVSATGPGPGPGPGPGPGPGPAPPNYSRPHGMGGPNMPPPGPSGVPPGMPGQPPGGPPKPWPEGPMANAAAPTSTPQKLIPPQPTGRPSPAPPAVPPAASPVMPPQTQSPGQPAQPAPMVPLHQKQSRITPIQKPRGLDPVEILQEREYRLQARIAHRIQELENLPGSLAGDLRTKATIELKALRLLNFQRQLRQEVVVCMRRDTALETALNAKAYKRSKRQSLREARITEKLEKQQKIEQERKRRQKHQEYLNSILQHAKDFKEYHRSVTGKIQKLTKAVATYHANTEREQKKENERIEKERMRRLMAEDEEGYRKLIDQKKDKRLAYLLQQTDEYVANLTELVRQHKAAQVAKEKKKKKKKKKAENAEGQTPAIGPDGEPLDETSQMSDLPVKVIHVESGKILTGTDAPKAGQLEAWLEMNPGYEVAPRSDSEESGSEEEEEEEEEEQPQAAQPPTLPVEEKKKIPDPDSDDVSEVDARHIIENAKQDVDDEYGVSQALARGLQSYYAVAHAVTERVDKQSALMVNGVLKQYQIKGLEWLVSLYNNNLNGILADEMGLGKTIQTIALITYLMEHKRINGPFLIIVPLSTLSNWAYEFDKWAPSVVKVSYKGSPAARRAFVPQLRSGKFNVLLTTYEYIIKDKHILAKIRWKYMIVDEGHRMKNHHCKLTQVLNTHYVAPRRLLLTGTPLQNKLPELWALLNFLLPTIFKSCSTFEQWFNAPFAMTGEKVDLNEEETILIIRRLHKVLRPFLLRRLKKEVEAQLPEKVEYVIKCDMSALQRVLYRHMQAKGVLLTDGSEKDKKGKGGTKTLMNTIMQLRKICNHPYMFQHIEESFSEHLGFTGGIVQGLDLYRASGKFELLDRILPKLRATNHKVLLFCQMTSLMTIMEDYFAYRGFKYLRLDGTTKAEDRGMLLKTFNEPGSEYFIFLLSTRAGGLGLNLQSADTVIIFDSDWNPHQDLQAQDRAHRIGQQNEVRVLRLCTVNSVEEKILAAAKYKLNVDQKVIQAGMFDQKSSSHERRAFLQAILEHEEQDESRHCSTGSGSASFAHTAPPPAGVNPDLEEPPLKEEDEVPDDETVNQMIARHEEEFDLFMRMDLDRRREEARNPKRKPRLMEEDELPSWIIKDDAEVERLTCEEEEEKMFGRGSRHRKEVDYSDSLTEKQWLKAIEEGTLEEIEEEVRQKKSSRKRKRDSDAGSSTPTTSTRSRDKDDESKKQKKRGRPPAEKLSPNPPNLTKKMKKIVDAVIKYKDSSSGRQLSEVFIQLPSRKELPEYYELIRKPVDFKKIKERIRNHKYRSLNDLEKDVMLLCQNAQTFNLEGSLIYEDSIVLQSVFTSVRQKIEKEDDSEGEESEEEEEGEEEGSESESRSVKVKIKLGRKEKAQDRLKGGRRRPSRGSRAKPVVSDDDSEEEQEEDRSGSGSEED
Summary of the method: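 MV4-11 cells treated with compound for 24 h, lysed in RIPA with protease/phosphatase inhibitors, and SMARCA2 and SMARCA4 (BRG1) levels assessed by Western blot with β-actin loading control and LI-COR fluorescent read-out. Maximal degradation (Dmax %) after 24 h binned into letter codes.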

SMARCA2 [2] = target: T1, SMARCA2; test: SMARCA2 Western blot MV4-11 degradation; details: 24 h; for Dmax: MV4-11, MV4-11 cells, read-out: SMARCA2 WB MV411 degradation 24 h: Average Dmax %; for DC50: MV4-11 cells, read-out: SMARCA2 WB MV411 degradation 24 h: Average external-Abs DC50
Experimental: Cells were seeded into 6-well plates (MV4-11: 4×10^6 cells/well/1 ml) and 1 ml of 2× compound solution was added into the well to make the final concentration and the plates were mixed well and incubated for 24 hours (No cytotoxicity was observed). The cell were collected with media and spun at 3000 rpm for 5 minutes. The supernatant was aspirated and the well and the cells were washed with cold PBS once and combined for centrifugation again; the supernatant aspirated again. 200 ul pre-chilled RIPAlysis buffer (Boston BioProducts BP-115D) with protease/phosphatase inhibitor (Roche 05892791001/Roche 04906837001) was directly added into the tube to lyze the cells for 20 minutes on ice. The cell lysate were collected into EP tubes and spun at 13000 rpm for 20 minutes and 72 ul supernatant was transferred to a fresh EP tube containing 18 ul of 5× loading buffer (Beyotime Bio P0015) to make the loading samples. The samples were heated to 100° C. for 10 minutes and cooled to RT and microcentrifuged. 20 ul of samples were loaded onto SDS-PAGE gel (Novex, WG1402BOX) and the gel was run at 80 V for 20 minutes and 120 V for 1.5 hours. The samples were electrotransfer to a NC membrane using wet-transfer method with 250 mA for 2.5 hours. The membrane was blocked with LICOR blocking buffer (LI-COR, 927-50000) for 1 hour. The membrane was washed three times with TBST (CST #9997S), 5 minutes each. Incubation was performed with primary antibody prepared in blocking buffer with 0.1% Tween-20 (Solarbio, P8220) at 4° C. overnight (Anti-SMARCA2/BRM antibody (ab15597) 1:500; Anti-BRG1 antibody [EPR3912] (ab108318) 1:1000; Rabbit anti-Baf180 antibody [EPR15860] (Abcam, ab196022) 1:1000; mouse anti-beta-Actin (8H10D10) (CST #3700) 1:10000). The membrane was washed three times with TBST, 5 minutes each. Incubation with secondary antibody was performed for 1 hour at RT (anti-rabbit IgG (Licor, 926-32211) 1:5000; anti-mouse IgG (LI-COR, 926-68070) 1:5000). The membrane was washed three times with TBST, 5 minutes each and lastly the LiCOR was read.
The letter codes for the percentage of SMARCA degradation after 24 hours (Dmax %) include: A (>90% degradation), B (>70-90% degradation), C (50-70% degradation), and D (<50% degradation).

SMARCA2 [3] = target: T1, SMARCA2; test: MSD SMARCA2 degradation in NCI-H1299 cell line (24 h); design: HC: NCI-H1299 cells treated with DMSO; host or cells: NCI-H1299; details: for Dmax: NCI-H1299, NCI-H1299 cells; for DC50: NCI-H1299 cells, read-out: SMARCA2 MSD H1299 degradation 24 h: External Abs-DC50
Summary of the method: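 SMARCA2 measured by MSD electrochemiluminescence (primary 0.3 ug/ml, secondary 1 ug/ml) on lysates from NCI-H1299 cells exposed to compounds for 24 h across nine 3-fold dilutions. Signal scaled from A2780 cells (no SMARCA2) to DMSO-treated H1299 controls, and maximal degradation after 24 h reported in letter categories.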

T1 sequence (P51531 whole entry): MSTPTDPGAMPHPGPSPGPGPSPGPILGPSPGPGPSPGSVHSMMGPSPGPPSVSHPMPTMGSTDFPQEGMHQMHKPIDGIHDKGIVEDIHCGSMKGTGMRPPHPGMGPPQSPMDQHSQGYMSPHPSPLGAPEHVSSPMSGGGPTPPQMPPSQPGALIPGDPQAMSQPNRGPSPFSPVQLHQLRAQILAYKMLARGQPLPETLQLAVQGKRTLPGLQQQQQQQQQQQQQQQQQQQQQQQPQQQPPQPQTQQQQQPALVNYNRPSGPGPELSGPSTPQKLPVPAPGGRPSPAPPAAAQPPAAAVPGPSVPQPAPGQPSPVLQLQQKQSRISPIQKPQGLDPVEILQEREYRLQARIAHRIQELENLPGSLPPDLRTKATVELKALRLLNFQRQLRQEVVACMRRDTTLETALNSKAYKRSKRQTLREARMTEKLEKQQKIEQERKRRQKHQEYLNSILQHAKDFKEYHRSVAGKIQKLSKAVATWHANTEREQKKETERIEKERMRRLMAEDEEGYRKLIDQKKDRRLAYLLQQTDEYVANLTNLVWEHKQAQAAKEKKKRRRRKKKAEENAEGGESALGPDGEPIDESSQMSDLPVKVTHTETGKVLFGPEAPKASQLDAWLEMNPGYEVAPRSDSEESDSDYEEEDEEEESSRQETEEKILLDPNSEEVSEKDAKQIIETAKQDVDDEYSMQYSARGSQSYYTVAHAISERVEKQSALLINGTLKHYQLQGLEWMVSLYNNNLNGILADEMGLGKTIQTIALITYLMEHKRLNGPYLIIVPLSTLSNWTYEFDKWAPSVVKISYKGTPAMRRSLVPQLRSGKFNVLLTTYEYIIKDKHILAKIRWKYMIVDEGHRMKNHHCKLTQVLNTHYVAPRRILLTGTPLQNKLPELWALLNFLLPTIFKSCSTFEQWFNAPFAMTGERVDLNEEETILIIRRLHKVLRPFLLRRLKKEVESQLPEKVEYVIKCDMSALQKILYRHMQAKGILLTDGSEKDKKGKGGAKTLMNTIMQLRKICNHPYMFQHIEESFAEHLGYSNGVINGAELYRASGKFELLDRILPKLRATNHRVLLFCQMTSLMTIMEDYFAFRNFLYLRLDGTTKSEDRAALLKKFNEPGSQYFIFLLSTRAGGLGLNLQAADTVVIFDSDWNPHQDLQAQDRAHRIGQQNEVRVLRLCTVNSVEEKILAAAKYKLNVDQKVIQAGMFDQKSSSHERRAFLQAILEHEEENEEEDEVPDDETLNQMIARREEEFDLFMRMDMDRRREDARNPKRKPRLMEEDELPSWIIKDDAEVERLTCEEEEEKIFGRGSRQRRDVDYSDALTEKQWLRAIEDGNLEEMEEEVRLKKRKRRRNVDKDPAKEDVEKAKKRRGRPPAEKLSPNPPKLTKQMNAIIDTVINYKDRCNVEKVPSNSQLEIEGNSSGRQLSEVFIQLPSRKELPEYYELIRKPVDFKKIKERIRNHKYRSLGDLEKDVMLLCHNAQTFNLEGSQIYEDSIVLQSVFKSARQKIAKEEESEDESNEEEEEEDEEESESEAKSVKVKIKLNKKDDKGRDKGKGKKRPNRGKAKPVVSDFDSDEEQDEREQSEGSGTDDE

| Structure (SMILES) | Dmax (SMARCA2 [1]) [%] | DC50 (SMARCA2 [1]) [nM] | Dmax (SMARCA4) [%] | DC50 (SMARCA4) [nM] | Dmax (SMARCA2 [2]) [%] | DC50 (SMARCA2 [2]) [nM] | Dmax (SMARCA2 [3]) [%] | DC50 (SMARCA2 [3]) [nM] |
| --- | --- | --- | --- | --- | --- | --- | --- | --- |
| Cc1ncsc1-c1ccc(CNC(=O)[C@@H]2C[C@@H](O)CN2C(=O)[C@@H](NC(=O)CN2CCN([C@H]3CC[C@@H](c4cnc(N5C6CCC5CN(c5cc(-c7ccccc7O)nnc5N)C6)nc4)CC3)CC2)C(C)(C)C)cc1 (single isomer, unassigned) [I-445] | > 90 | 100 to 500 | > 90 | < 100 | > 90 | < 100 |  |  |
| Cc1ncsc1-c1ccc(CNC(=O)[C@@H]2C[C@@H](O)CN2C(=O)[C@@H](NC(=O)CN2CCN([C@H]3CC[C@H](c4cnc(N5C6CCC5CN(c5cc(-c7ccccc7O)nnc5N)C6)nc4)CC3)CC2)C(C)(C)C)cc1 (single isomer, unassigned) [I-446, (2S,4R)-1-((2S)-2-(2-(4-((1r,4S)-4-(2-(3-(3-amino-6-(2-hydroxyphenyl)pyridazin-4-yl)-3,8-diazabicyclo[3.2.1]octan-8-yl)pyrimidin-5-yl)cyclohexyl)piperazin-1-yl)acetamido)-3,3-dimethylbutanoyl)-4-hydroxy-N-(4-(4-methylthiazol-5-yl)benzyl)pyrrolidine-2-carboxamide] | > 90 |  | > 90 |  | > 90 |  |  |  |
| Cc1ncsc1-c1ccc(CNC(=O)[C@@H]2C[C@@H](O)CN2C(=O)[C@@H](NC(=O)CN2CCN([C@H]3CC[C@H](c4cnc(N5C6CCC5CN(c5cc(-c7ccccc7O)nnc5N)C6)nc4)CC3)CC2)C(C)(C)C)cc1 (single isomer, unassigned) [I-446] |  | < 100 |  | < 100 |  | < 100 |  |  |
| Cn1c(=O)n(C2CCC(=O)NC2=O)c2ccc(C3CC4(C3)CC(N3CCC(c5cnc(N6C7CCC6CN(c6cc(-c8ccccc8O)nnc6N)C7)nc5)CC3)C4)cc21 (single isomer, unassigned) [I-536 (P1), 3-(5-(6-(4-(2-(3-(3-amino-6-(2-hydroxyphenyl)pyridazin-4-yl)-3,8-diazabicyclo[3.2.1]octan-8-yl)pyrimidin-5-yl)piperidin-1-yl)spiro[3.3]heptan-2-yl)-3-methyl-2-oxo-2,3-dihydro-1H-benzo[d]imidazol-1-yl)piperidine-2,6-dione] |  | < 100 |  | < 100 |  | < 100 |  |  |
| Cn1c(=O)n(C2CCC(=O)NC2=O)c2ccc([C@H]3CC[C@@H](N4CCC(c5cnc(N6C7CCC6CN(c6cc(-c8ccccc8O)nnc6N)C7)nc5)CC4)CC3)cc21 (stereo partly drawn) [I-277] | > 90 | < 100 | > 90 | < 100 | > 90 | < 100 |  |  |
| Cn1c(=O)n(C2CCC(=O)NC2=O)c2ccc(CCCN3CCN(c4cnc(N5C6CCC5CN(c5cc(-c7ccccc7O)nnc5N)C6)nc4)CC3)cc21 (stereo not drawn) [I-285] | > 90 | < 100 | > 90 | < 100 |  |  | > 90 | < 100 |
| Cn1c(=O)n(C2CCC(=O)NC2=O)c2ccc(C3CCC(N4CCC(c5cnc(N6C7CCC6CN(c6cc(-c8ccccc8O)nnc6N)C7)nc5)CC4)CC3)cc21 (stereo not drawn) [I-290] | > 90 | < 100 | > 90 | < 100 |  |  | > 90 | < 100 |
| Cn1c(=O)n(C2CCC(=O)NC2=O)c2ccc([C@H]3CC[C@H](N4CCC(c5cnc(N6C7CCC6CN(c6cc(-c8ccccc8O)nnc6N)C7)nc5)CC4)CC3)cc21 (stereo partly drawn) [I-291] | > 90 | < 100 | > 90 | < 100 |  | < 100 |  |  |
| Cn1c(=O)n(C2CCC(=O)NC2=O)c2cccc(C3CCC(N4CCC(n5cc(-c6cc(-c7ccccc7O)nnc6N)cn5)CC4)CC3)c21 (stereo not drawn) [I-321] | > 90 | < 100 | > 90 | < 100 | > 90 | < 100 |  |  |
| Cc1ncsc1-c1ccc(CNC(=O)[C@@H]2C[C@@H](O)CN2C(=O)[C@@H](NC(=O)N2CCC(c3cnc(N4C5CCC4CN(c4cc(-c6ccccc6O)nnc4N)C5)nc3)CC2)C(C)(C)C)cc1 [I-448] | > 90 | 100 to 500 | > 90 | < 100 |  |  | 70 to 90 | 100 to 500 |
| Cc1ncsc1-c1ccc(CNC(=O)[C@@H]2C[C@@H](O)CN2C(=O)[C@@H](NC(=O)CCN2CCC(c3cnc(N4C5CCC4CN(c4cc(-c6ccccc6O)nnc4N)C5)nc3)CC2)C(C)(C)C)cc1 [I-449] | < 50 | > 1000 | < 50 | 100 to 500 |  |  | < 50 | 100 to 500 |
| Cc1ncsc1-c1ccc(CNC(=O)[C@@H]2C[C@@H](O)CN2C(=O)[C@@H](NC(=O)CN(C)Cc2ccc(N3CCN(c4cc(-c5ccccc5O)nnc4N)CC3)cc2)C(C)(C)C)cc1 [I-462] | 70 to 90 | 501 to 1000 | < 50 | > 1000 |  |  | 70 to 90 | 501 to 1000 |
| Cc1ncsc1-c1ccc(CNC(=O)[C@@H]2C[C@@H](O)CN2C(=O)[C@@H](NC(=O)CN(C)CC#Cc2cnc(N3C4CCC3CN(c3cc(-c5ccccc5O)nnc3N)C4)nc2)C(C)(C)C)cc1 [I-495] | 70 to 90 | 100 to 500 | > 90 | < 100 |  |  | 70 to 90 | 100 to 500 |
| Nc1nnc(-c2ccccc2O)cc1N1CC2CCC(C1)N2c1ncc(C2CCN(CCCCCNC(=O)COc3ccc4c(c3)CCCN4C(=O)CCl)CC2)cn1 [I-524] | < 50 | > 1000 | 70 to 90 | > 1000 |  |  |  |  |
| Nc1nnc(-c2ccccc2O)cc1N1CC2CCC(C1)N2c1ncc(C2CCN(CCCCCCCCCNC(=O)COc3ccc4c(c3)CCCN4C(=O)CCl)CC2)cn1 [I-525] | < 50 | > 1000 | 50 to 70 | > 1000 |  |  |  |  |
| NCC#Cc1nccc(N2C3CCC2CN(c2cc(-c4ccccc4O)nnc2N)C3)n1 [I-534, 2-[6-amino-5-[8-[2-(3-aminoprop-1-ynyl)pyrimidin-4-yl]-3,8-diazabicyclo[3.2.1]octan-3-yl]pyridazin-3-yl]phenol] | < 50 | > 1000 | 70 to 90 | > 1000 |  |  | > 90 | 100 to 500 |
| CC(C)(C)[C@H](NC(=O)[C@H]1CC2(C1)C[C@H](N1CCC(c3cnc(N4C5CCC4CN(c4cc(-c6ccccc6O)nnc4N)C5)nc3)CC1)C2)C(=O)N1C[C@H](O)C[C@H]1C(=O)NOc1ccc(-c2ccccc2F)cc1 (stereo partly drawn) [I-537, (2S,4R)-1-[(2S)-2-[[2-[4-[2-[3-[3-amino-6-(2-hydroxyphenyl)pyridazin-4-yl]-3,8-diazabicyclo[3.2.1]octan-8-yl]pyrimidin-5-yl]-1-piperidyl]spiro[3.3]heptane-6-carbonyl]amino]-3,3-dimethyl-butanoyl]-N-[4-(2-fluorophenyl)phenoxy]-4-hydroxy-pyrrolidine-2-carboxamide] |  | > 1000 |  |  |  | > 1000 |  |  |
